Test results taken from ChEMBL document CHEMBL1158912, “Structure and in vitro antiviral activity of sesquiterpene glycosides from Calendula arvensis” (J Nat Prod, 1990).
Values after ≈ are worked out from the molar mass of the structure shown.

How the values were obtained:
[1] = Cytotoxicity against golden hamster CER cells assessed as cell viability at 100 ug/mL after 48 hrs by neutral red assay; format: cell-based, Mesocricetus auratus
[2] = test system: HeLa; experiment: Cytotoxicity against human HeLa cells assessed as cell viability at 100 ug/mL after 48 hrs by neutral red assay; format: cell-based
[3] = Cytotoxicity against golden hamster CER cells assessed as cell viability at 20 ug/mL after 48 hrs by neutral red assay; format: cell-based, Mesocricetus auratus
[4] = test system: HeLa; experiment: Cytotoxicity against human HeLa cells assessed as cell viability at 20 ug/mL after 48 hrs by neutral red assay; format: cell-based
[5] = test system: Vesicular stomatitis virus; experiment: Antiviral activity against VSV infected in CER cells assessed as reduction in plaque formation at 20 ug/ml after 48 hrs by neutral red assay; format: functional; parameters: scale not given: the % may be the effect or the level left
[6] = test system: Vesicular stomatitis virus; experiment: Antiviral activity against VSV infected in CER cells assessed as reduction in plaque formation at 4 ug/ml after 48 hrs by neutral red assay; format: functional; parameters: scale not given: the % may be the effect or the level left
[7] = test system: Vesicular stomatitis virus; experiment: Antiviral activity against VSV infected in CER cells assessed as reduction in plaque formation at 0.8 ug/ml after 48 hrs by neutral red assay; format: functional; parameters: scale not given: the % may be the effect or the level left
[8] = test system: Vesicular stomatitis virus; experiment: Antiviral activity against VSV infected in CER cells assessed as reduction in plaque formation after 48 hrs by neutral red assay; format: functional
[9] = test system: rhinovirus A1B; experiment: Antiviral activity against HRV1B infected in human HeLa cells assessed as inhibition of virus-induced cytopathicity at 20 ug/ml after 48 hrs; format: functional, Human rhinovirus 1B; parameters: scale not given: the % may be the effect or the level left
[10] = test system: rhinovirus A1B; experiment: Antiviral activity against HRV1B infected in human HeLa cells assessed as inhibition of virus-induced cytopathicity at 4 ug/ml after 48 hrs; format: functional, Human rhinovirus 1B; parameters: scale not given: the % may be the effect or the level left
[11] = test system: rhinovirus A1B; experiment: Antiviral activity against HRV1B infected in human HeLa cells assessed as inhibition of virus-induced cytopathicity at 0.8 ug/ml after 48 hrs; format: functional, Human rhinovirus 1B; parameters: scale not given: the % may be the effect or the level left
[12] = test system: Vesicular stomatitis virus; experiment: Antiviral activity against VSV infected in CER cells assessed as reduction in plaque formation at 100 ug/ml after 48 hrs by neutral red assay; format: functional; parameters: scale not given: the % may be the effect or the level left
[13] = test system: Vesicular stomatitis virus; experiment: Antiviral activity against VSV infected in CER cells assessed as reduction in plaque formation at 50 ug/ml after 48 hrs by neutral red assay; format: functional; parameters: scale not given: the % may be the effect or the level left
[14] = test system: rhinovirus A1B; experiment: Antiviral activity against HRV1B infected in human HeLa cells assessed as inhibition of virus-induced cytopathicity at 100 ug/ml after 48 hrs; format: functional, Human rhinovirus 1B; parameters: scale not given: the % may be the effect or the level left
[15] = test system: rhinovirus A1B; experiment: Antiviral activity against HRV1B infected in human HeLa cells assessed as inhibition of virus-induced cytopathicity at 50 ug/ml after 48 hrs; format: functional, Human rhinovirus 1B; parameters: scale not given: the % may be the effect or the level left

Row | Structure (SMILES) | Activity [1] | Activity [2] | Activity [3] | Activity [4] | Activity [5] [%] | Activity [6] [%] | Activity [7] [%] | MIC50 [8] [µg/mL] | Activity [9] [%] | Activity [10] [%] | Activity [11] [%] | Activity [12] [%] | Activity [13] [%] | Activity [14] [%] | Activity [15] [%]
1 | CC(C)C(=O)O[C@H]1[C@H](O[C@]2(C)CC[C@@H]3[C@H]([C@@H]4[C@H](C)CC[C@@H]42)C3(C)C)O[C@H](C)[C@H](O)[C@@H]1O | Non-toxic | Non-toxic | Non-toxic | Non-toxic | 9 | 0 | 0 | > 20 | 0 | 0 | 0 | – | – | – | –
2 | C[C@@H]1CC[C@H]2[C@@H]1[C@H]1[C@@H](CC[C@@]2(C)O[C@@H]2O[C@H](C)[C@H](O)[C@H](O)[C@H]2O)C1(C)C | Non-toxic | Non-toxic | Non-toxic | Non-toxic | 73 | 19 | 8 | 14 (≈ 38 µM) | 0 | 0 | 0 | – | – | – | –
3 | C/C=C(\C)C(=O)O[C@H]1[C@H](O[C@]2(C)CC[C@@H]3[C@H]([C@@H]4[C@H](C)CC[C@@H]42)C3(C)C)O[C@H](C)[C@H](O)[C@@H]1O | Non-toxic | Non-toxic | Non-toxic | Non-toxic | 22 | 13 | 0 | > 20 | 0 | 0 | 0 | – | – | – | –
4 | CCC(C)C(=O)O[C@H]1[C@H](O[C@]2(C)CC[C@@H]3[C@H]([C@@H]4[C@H](C)CC[C@@H]42)C3(C)C)O[C@H](C)[C@H](O)[C@@H]1O (some centres undefined) | Non-toxic | Non-toxic | Non-toxic | Non-toxic | 30 | 20 | 5 | > 20 | 0 | 0 | 0 | – | – | – | –
5 | CC(=O)O[C@H]1[C@H](O[C@]2(C)CC[C@@H]3[C@H]([C@@H]4[C@H](C)CC[C@@H]42)C3(C)C)O[C@H](C)[C@H](O)[C@@H]1O | Non-toxic | Non-toxic | Non-toxic | Non-toxic | 10 | 7 | 0 | > 20 | 0 | 0 | 0 | – | – | – | –
6 | CC/C(C)=C\C(=O)O[C@H]1[C@H](O[C@]2(C)CC[C@@H]3[C@H]([C@@H]4[C@H](C)CC[C@@H]42)C3(C)C)O[C@H](C)[C@H](O)[C@@H]1O | Non-toxic | Non-toxic | Non-toxic | Non-toxic | 22 | 18 | 5 | > 20 | 0 | 0 | 0 | – | – | – | –
7 | CC(C)[C@@H]1CC[C@@H](C)C23CC[C@@](C)(O[C@@H]4O[C@H](C)[C@H](O)[C@H](O)[C@H]4O)[C@@H]2[C@@H]13 (some centres undefined) [EPICUBEBOL GLYCOSIDE] | Non-toxic | Non-toxic | Non-toxic | Non-toxic | 4 | 0 | – | 36 (≈ 97.7 µM) | 0 | 0 | – | 100 | 90 | 25 | 0
